Measured values as given in patent US11497212B2, “Substituted thiophenyl uracils, salts thereof and the use thereof as herbicidal agents” (Syngenta Crop Protection AG, priority 2017, dated 2022).

Tests used:
Assay type in all cases: in vivo
Zea mays [1] = test: Crop compatibility post-emergence (greenhouse pot trial)
How it was run: (§1)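 Crop seeds sown in sandy loam and grown in the greenhouse 2 to 3 weeks were treated at the one-leaf stage. WP or EC formulations were sprayed as aqueous suspension/emulsion with 0.5% additive at 600 L/ha. Damage was scored visually about 3 weeks later versus untreated controls (0% = like control, 100% = dead).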

Triticum aestivum = test: as above
How it was run: as §1

Oryza sativa = test: as above; details: application rate 20 g/ha
How it was run: as §1

Glycine max [2] = test: as above
How it was run: as §1

Amaranthus retroflexus [3] = test: Herbicidal action post-emergence (greenhouse pot trial); details: application rate 20 g/ha, scored visually after about 3 weeks vs untreated controls
How it was run: (§2)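 Foliar application post-emergence; water volume 600 L/ha, additive 0.5%, dose ≤80 g/ha. Scoring: visual, ~3 wk, relative to untreated (0–100%).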

Matricaria inodora [4] = test: as above; details: scored visually after about 3 weeks vs untreated controls
How it was run: as §2

Polygonum convolvulus = test: as above; details: scored visually after about 3 weeks vs untreated controls
How it was run: as §2

Veronica persica [5] = test: as above; details: application rate 20 g/ha
How it was run: as §2

Abutilon theophrasti [6] = test: as above; details: scored visually after about 3 weeks vs untreated controls
How it was run: as §2

Viola tricolor [7] = test: as above
How it was run: as §2

Pharbitis purpurea [8] = test: as above
How it was run: as §2

Zea mays [9] = test: Crop compatibility pre-emergence (greenhouse pot trial); details: application rate 80 g/ha, effect vs untreated controls
Description: (§3) Seeds of mono- and dicotyledonous weeds and crop plants were laid out in plastic or organic plant pots and covered with soil. The compounds of the invention formulated in the form of wettable powders (WP) or emulsion concentrates (EC) were then applied to the surface of the covering soil as an aqueous suspension or emulsion with addition of 0.5% additive at a water application rate equivalent to 600 L/ha. After the treatment, the pots were placed in a greenhouse and kept under good growth conditions for the test plants. After about 3 weeks, the efficacy of the preparations was scored visually as a percentage by comparison with untreated controls. For example, 100% efficacy=plants have died, 0% efficacy=like control plants.
(§4) Crop compatibilities were also scored correspondingly.
(§5) The effects observed are reported here on selected crop plants by comparison with the untreated controls (values in %).

Amaranthus retroflexus [10] = test: Herbicidal action pre-emergence (greenhouse pot trial); details: scored after about 3 weeks
Description: as §3, with “control plants. Tables B1 to B16 below show the efficacies of selected compounds of the general formula (I) according to tables I.1 to I.60 on various harmful plants and an application rate corresponding to 320 g/ha or lower that were obtained by the aforementioned trial method.” for “control plants.”

Matricaria inodora [11] = test: as above; details: scored after about 3 weeks
Description: as §3, with “control plants. Tables B1 to B16 below show the efficacies of selected compounds of the general formula (I) according to tables I.1 to I.60 on various harmful plants and an application rate corresponding to 320 g/ha or lower that were obtained by the aforementioned trial method.” for “control plants.”

Abutilon theophrasti [12] = test: as above; details: scored after about 3 weeks
Description: as §3, with “control plants. Tables B1 to B16 below show the efficacies of selected compounds of the general formula (I) according to tables I.1 to I.60 on various harmful plants and an application rate corresponding to 320 g/ha or lower that were obtained by the aforementioned trial method.” for “control plants.”

Viola tricolor [13] = test: as above; details: scored after about 3 weeks
Description: as §3, with “control plants. Tables B1 to B16 below show the efficacies of selected compounds of the general formula (I) according to tables I.1 to I.60 on various harmful plants and an application rate corresponding to 320 g/ha or lower that were obtained by the aforementioned trial method.” for “control plants.”

Stellaria media [14] = test: Herbicidal action post-emergence (greenhouse pot trial); details: application rate 20 g/ha, scored visually after about 3 weeks vs untreated controls
How it was run: as §2

Echinochloa crus-galli [15] = test: as above; details: application rate 20 g/ha, scored visually after about 3 weeks vs untreated controls
How it was run: as §2

Setaria viridis [16] = test: as above; details: application rate 80 g/ha, scored visually after about 3 weeks vs untreated controls
How it was run: as §2

Glycine max [17] = test: Crop compatibility pre-emergence (greenhouse pot trial); details: application rate 80 g/ha, effect vs untreated controls
Description: as §3, §4, §5

Setaria viridis [18] = test: Herbicidal action pre-emergence (greenhouse pot trial); details: application rate 320 g/ha, scored after about 3 weeks
Description: as §3, with “control plants. Tables B1 to B16 below show the efficacies of selected compounds of the general formula (I) according to tables I.1 to I.60 on various harmful plants and an application rate corresponding to 320 g/ha or lower that were obtained by the aforementioned trial method.” for “control plants.”

Alopecurus myosuroides = test: as above; details: application rate 320 g/ha, scored after about 3 weeks
Description: as §3, with “control plants. Tables B1 to B16 below show the efficacies of selected compounds of the general formula (I) according to tables I.1 to I.60 on various harmful plants and an application rate corresponding to 320 g/ha or lower that were obtained by the aforementioned trial method.” for “control plants.”

Veronica persica [19] = test: as above; details: application rate 320 g/ha
Description: as §3, with “control plants. Tables B1 to B16 below show the efficacies of selected compounds of the general formula (I) according to tables I.1 to I.60 on various harmful plants and an application rate corresponding to 320 g/ha or lower that were obtained by the aforementioned trial method.” for “control plants.”

Stellaria media [20] = test: as above; details: application rate 320 g/ha, scored after about 3 weeks
Description: as §3, with “control plants. Tables B1 to B16 below show the efficacies of selected compounds of the general formula (I) according to tables I.1 to I.60 on various harmful plants and an application rate corresponding to 320 g/ha or lower that were obtained by the aforementioned trial method.” for “control plants.”

Lolium rigidum = test: as above; details: application rate 320 g/ha
Description: as §3, with “control plants. Tables B1 to B16 below show the efficacies of selected compounds of the general formula (I) according to tables I.1 to I.60 on various harmful plants and an application rate corresponding to 320 g/ha or lower that were obtained by the aforementioned trial method.” for “control plants.”

Echinochloa crus-galli [21] = test: as above; details: application rate 320 g/ha, scored after about 3 weeks
Description: as §3, with “control plants. Tables B1 to B16 below show the efficacies of selected compounds of the general formula (I) according to tables I.1 to I.60 on various harmful plants and an application rate corresponding to 320 g/ha or lower that were obtained by the aforementioned trial method.” for “control plants.”

Avena fatua = test: as above; details: application rate 320 g/ha
Description: as §3, with “control plants. Tables B1 to B16 below show the efficacies of selected compounds of the general formula (I) according to tables I.1 to I.60 on various harmful plants and an application rate corresponding to 320 g/ha or lower that were obtained by the aforementioned trial method.” for “control plants.”

Pharbitis purpurea [22] = test: as above; details: application rate 320 g/ha
Description: as §3, with “control plants. Tables B1 to B16 below show the efficacies of selected compounds of the general formula (I) according to tables I.1 to I.60 on various harmful plants and an application rate corresponding to 320 g/ha or lower that were obtained by the aforementioned trial method.” for “control plants.”

SMILES | Zea mays (Efficacy in %) (Zea mays [1]; application rate 20 g/ha) [%] | Oryza sativa (Efficacy in %) (Oryza sativa) [%] | Glycine max (Efficacy in %) (Glycine max [2]; application rate 5 g/ha) [%] | Amaranthus retroflexus (Efficacy in %) (Amaranthus retroflexus [3]) [%] | Matricaria inodora (Efficacy in %) (Matricaria inodora [4]; application rate 20 g/ha) [%] | Polygonum convolvulus (Efficacy in %) (Polygonum convolvulus; application rate 20 g/ha) [%] | Veronica persica (Efficacy in %) (Veronica persica [5]) [%] | Abutilon theophrasti (Efficacy in %) (Abutilon theophrasti [6]; application rate 20 g/ha) [%] | Viola tricolor (Efficacy in %) (Viola tricolor [7]; application rate 20 g/ha) [%] | Pharbitis purpurea (Efficacy in %) (Pharbitis purpurea [8]; application rate 20 g/ha) [%] | Zea mays (Efficacy in %) (Zea mays [9]) [%] | Triticum aestivum (Efficacy in %) (Triticum aestivum; application rate 20 g/ha) [%] | Glycine max (Efficacy in %) (Glycine max [2]; application rate 20 g/ha) [%] | other results
CC(Sc1cc(-n2c(=O)cc(C(F)(F)F)n(C)c2=O)c(F)cc1Cl)C(=O)NCC1CCOC1(C)C (stereo not shown) [I.1-227] | 20 | 0 | 20 | 100 | 100 | 100 | 100 | 100 | 80 | 100 | 0 |  |  | Triticum aestivum (Efficacy in %) (Triticum aestivum; application rate 5 g/ha): 10%; Amaranthus retroflexus (Efficacy in %) (Amaranthus retroflexus [10]; application rate 80 g/ha): 100%; Matricaria inodora (Efficacy in %) (Matricaria inodora [11]; application rate 80 g/ha): 90%; Abutilon theophrasti (Efficacy in %) (Abutilon theophrasti [12]; application rate 80 g/ha): 100%; Viola tricolor (Efficacy in %) (Viola tricolor [13]; application rate 80 g/ha): 80%
CCC(Sc1cc(-n2c(=O)c(C)c(C(F)(F)F)n(C)c2=O)c(F)cc1Cl)C(=O)OCC1CCOC1 (stereo not shown) [I.12-72, Tetrahydrofuran-3-ylmethyl 2-({2-chloro-4-fluoro-5-[3,5-dimethyl-2,6-dioxo-4-(trifluoromethyl)-3,6-dihydropyrimidin-1(2H)-yl]phenyl}sulfanyl)butanoate] |  | 20 | 20 | 100 | 100 | 100 | 100 | 100 | 100 |  |  | 0 |  | Zea mays (Efficacy in %) (Zea mays [1]; application rate 5 g/ha): 0%; Stellaria media (Efficacy in %) (Stellaria media [14]): 100%; Echinochloa crus-galli (Efficacy in %) (Echinochloa crus-galli [15]): 100%
CC(Sc1cc(-n2c(=O)cc(C(F)(F)F)n(C)c2=O)c(F)cc1Cl)C(=O)NC1(C#N)CCSC1 (stereo not shown) [I.1-340] |  | 10 |  |  |  |  |  |  |  |  | 0 | 20 | 20 | Zea mays (Efficacy in %) (Zea mays [1]; application rate 80 g/ha): 0%; Setaria viridis (Efficacy in %) (Setaria viridis [16]): 80%; Matricaria inodora (Efficacy in %) (Matricaria inodora [4]; application rate 80 g/ha): 100%; Polygonum convolvulus (Efficacy in %) (Polygonum convolvulus; application rate 80 g/ha): 100%; Abutilon theophrasti (Efficacy in %) (Abutilon theophrasti [6]; application rate 80 g/ha): 100%; Viola tricolor (Efficacy in %) (Viola tricolor [7]; application rate 80 g/ha): 100%; Pharbitis purpurea (Efficacy in %) (Pharbitis purpurea [8]; application rate 80 g/ha): 100%; Glycine max (Efficacy in %) (Glycine max [17]): 20%; Setaria viridis (Efficacy in %) (Setaria viridis [18]): 100%; Alopecurus myosuroides (Efficacy in %) (Alopecurus myosuroides): 90%; Amaranthus retroflexus (Efficacy in %) (Amaranthus retroflexus [10]; application rate 320 g/ha): 100%; Matricaria inodora (Efficacy in %) (Matricaria inodora [11]; application rate 320 g/ha): 100%; Veronica persica (Efficacy in %) (Veronica persica [19]): 100%; Stellaria media (Efficacy in %) (Stellaria media [20]): 100%; Lolium rigidum (Efficacy in %) (Lolium rigidum): 100%; Abutilon theophrasti (Efficacy in %) (Abutilon theophrasti [12]; application rate 320 g/ha): 100%; Viola tricolor (Efficacy in %) (Viola tricolor [13]; application rate 320 g/ha): 100%; Echinochloa crus-galli (Efficacy in %) (Echinochloa crus-galli [21]): 100%; Avena fatua (Efficacy in %) (Avena fatua): 80%; Pharbitis purpurea (Efficacy in %) (Pharbitis purpurea [22]): 100%
Cc1c(C(F)(F)F)n(C)c(=O)n(-c2cc(SC(CC(C)C)C(=O)OCC3CCCCO3)c(Cl)cc2F)c1=O (stereo not shown) [I.14-91] | 20 | 0 |  | 100 |  |  | 100 | 100 | 100 | 80 |  | 20 | 20 | 
